{"source": "patent US20250270221A1", "about": "“SOLID FORMS OF JAK INHIBITOR AND PROCESS OF PREPARING THE SAME” (Incyte Corporation, priority 2022, published 2025)", "assay_type_in_all_cases": "physicochemical", "key": {"[1]": {"experiment": "Dynamic vapor sorption (VTI-SA+, sample pre-dried at 60° C.)", "description": "The DVS experiment was performed on a VTI-SA+ Vapor Sorption Analyzer from TA Instruments. […] Then the humidity was cycled from 5% RH to 95% RH (adsorption) and back to 5% RH (desorption) with 5% RH interval at a constant temperature of 25° C. The equilibration criteria were 0.010 wt % in 5 minutes with a maximum equilibration time of 180 minutes per step."}, "[2]": {"experiment": "Water activity slurry experiments (XRPD of solid phase)", "conditions": "20 d", "description": "Limited water activity slurries were conducted utilizing ruxolitinib di-hydrate (see table below). The effect of water activity (aw) on the hydration state of the di-hydrate was investigated through competitive water activity trituration experiments (slurries) in various aqueous solvent mixtures. The resulting solid phase was characterized by XRPD. […] Water activity is also related to relative humidity in that RH %=aw×100. Therefore, it is possible to directly relate the stability of an anhydrous/hydrate system in slurry experiments to solid-state stability. […] The method is particularly valuable when relatively slow kinetics of conversion in the solid state prevents reaching true equilibrium in a reasonable timeframe, since solvent-mediated transformation accelerates the conversion process."}, "[3]": {"experiment": "Solubility of crystalline ruxolitinib di-hydrate in organic solvents", "conditions": "for solubility: organic solvent or mixture, thermodynamic from solid", "text": "The resulting ruxolitinib free base readily dissolved in the organic solvents."}, "[4]": {"experiment": "Relative humidity testing (physical stability, XRPD)", "text": "Ruxolitinib di-hydrate was held at select relative humidities to help determine range of physical stability (see table below). The d-hydrate was transferred to a vial, which was then uncapped and placed inside a jar, for a designated time period, containing a saturated aqueous salt solution: […]"}, "[5]": {"experiment": "Dehydration of ruxolitinib di-hydrate (resulting solid form)", "text": "Dehydration of ruxolitinib di-hydrate results in the isolation of anhydrous crystalline ruxolitinib free base (Form I) (see table below). Form I is described in more detail in Example 15."}, "[6]": {"experiment": "Aqueous solubility of crystalline ruxolitinib di-hydrate", "conditions": "20 °C, thermodynamic from solid, 20-25° C."}, "[7]": {"experiment": "Dynamic vapor sorption (DVS Intrinsic, Method D, not dried)", "set-up": "Hysteresis: unit not given here", "description": "The samples were not dried prior to analysis. Sorption and desorption data were collected from 5% to 95% RH in 10% RH increments under a nitrogen purge. The equilibrium criteria used for the analyses were 0.001 dm/dt weight change in 5 minutes with a minimum step time of 30 minutes and maximum equilibration time of 180 minutes with a 3 minute data logging interval. Data were not corrected for the initial moisture content of the sample."}, "[8]": {"conditions": "Target RH 95.0%, sample RH 94.0%"}}}
{"molecule": "N#CC[C@H](C1CCCC1)n1cc(-c2ncnc3[nH]ccc23)cn1", "note": "[Ruxolitinib Di-hydrate, (R)-3-(4-(7H-pyrrolo[2,3-d]pyrimidin-4-yl)-1H-pyrazol-1-yl)-3-cyclopentylpropanenitrile di-hydrate]", "values": [{"measurement": "Solid form after pre-dried step", "setting": "[1]; 60° C. under dry N2 (0% RH) for 1 h", "value": "dehydrated to form amorphous ruxolitinib free base"}, {"measurement": "Solid form after DVS (XRPD)", "setting": "[1]; after cycle 5% RH to 95% RH and back to 5% RH, 25° C.", "value": "crystalline ruxolitinib di-hydrate"}, {"measurement": "Water re-adsorbed", "setting": "[1]; at 95% RH, 25° C., after pre-drying at 60° C.", "value": 9.6, "unit": "%"}, {"measurement": "Result (solid form)", "setting": "[2]; 0.34 aw, 75:25 DMSO/H2O", "value": "Di-hydrate"}, {"measurement": "Result (solid form)", "setting": "[2]; 0.42 aw, 70:30 DMSO/H2O", "value": "Di-hydrate"}, {"measurement": "Result (solid form)", "setting": "[2]; 0.68 aw, 50:50 DMSO/H2O", "value": "Di-hydrate"}, {"measurement": "solubility", "setting": "[3]; acetone", "value": "> 500000", "unit": "µg/mL"}, {"measurement": "solubility", "setting": "[3]; ethyl acetate", "value": "> 200000", "unit": "µg/mL"}, {"measurement": "solubility", "setting": "[3]; Ethanol (EtOH)", "value": "> 500000", "unit": "µg/mL"}, {"measurement": "solubility", "setting": "[3]; Isopropanol (IPA)", "value": "> 500000", "unit": "µg/mL"}, {"measurement": "solubility", "setting": "[3]; Methanol (MeOH)", "value": "> 500000", "unit": "µg/mL"}, {"measurement": "Behaviour of the hydrate in polar solvents", "setting": "[3]; polar organic solvents", "value": "lost crystalline water"}, {"measurement": "Result (solid form)", "setting": "[4]; 0% RH, N2, RT, 1 d", "value": "Di-hydrate + Form I"}, {"measurement": "Result (solid form)", "setting": "[4]; 11% RH, RT, 2 d", "value": "Di-hydrate"}, {"measurement": "Result (solid form)", "setting": "[4]; 11% RH, RT, 14 d", "value": "Di-hydrate"}, {"measurement": "Result (solid form)", "setting": "[4]; 33% RH, RT, 2 d", "value": "Di-hydrate"}, {"measurement": "Result (solid form)", "setting": "[4]; 53% RH, RT, 2 d", "value": "Di-hydrate"}, {"measurement": "Result (solid form)", "setting": "[4]; 98% RH, RT, 2 d", "value": "Di-hydrate"}, {"measurement": "Result (solid form)", "setting": "[4]; 98% RH, RT, 4 d", "value": "Di-hydrate"}, {"measurement": "Relative humidity at which the di-hydrate form is physically stable", "setting": "[4]; during the time tested", "value": "above 11 % RH"}, {"measurement": "Relative humidity of conversion to anhydrous crystalline free base form (Form I)", "setting": "[4]; undetermined value, during the time tested", "value": "below 11 % RH"}, {"measurement": "Result (solid form)", "setting": "[5]; 42° C. oven, 1 d", "value": "Di-"}, {"measurement": "Result (solid form)", "setting": "[5]; 50° C., vacuum oven, 1 d", "value": "Form I"}, {"measurement": "Result (solid form)", "setting": "[5]; 80° C./30 minutes", "value": "amorphous"}, {"measurement": "Result (solid form)", "setting": "[5]; 110° C./20 minutes", "value": "amorphous"}, {"measurement": "Result (solid form)", "setting": "[5]; P2O5 jar, RT, 4 d", "value": "Form I"}, {"measurement": "Result (solid form)", "setting": "[5]; P2O5 jar, RT, 5 d", "value": "Form I"}, {"measurement": "Result (solid form)", "setting": "[5]; P2O5 jar, RT, 13 d", "value": "conversion"}, {"measurement": "Result (solid form)", "setting": "[5]; P2O5 jar, RT, 21 d, di-hydrate crystals", "value": "Form I"}, {"measurement": "Result (solid form)", "setting": "[5]; RT, vacuum oven, 1 d", "value": "Form I"}, {"measurement": "solubility", "setting": "[6]; aqueous buffer, pH 6.0 (PBS)", "value": 17.4, "unit": "µg/mL"}, {"measurement": "solubility", "setting": "[6]; aqueous buffer, pH 6.5 (PBS)", "value": 106, "unit": "µg/mL"}, {"measurement": "solubility", "setting": "[6]; aqueous buffer, pH 7.0 (PBS)", "value": 101, "unit": "µg/mL"}, {"measurement": "solubility", "setting": "[6]; aqueous buffer, pH 7.4 (PBS)", "value": 100, "unit": "µg/mL"}, {"measurement": "solubility", "setting": "[6]; fassif, FeSSIF (pH 6.5)", "value": 112, "unit": "µg/mL"}, {"measurement": "solubility", "setting": "[6]; saline or isotonic, Saline (pH 5.5)", "value": 105, "unit": "µg/mL"}, {"measurement": "solubility", "setting": "[6]; simulated gastric fluid, 0.1N HCl", "value": "> 10700", "unit": "µg/mL"}, {"measurement": "solubility", "setting": "[6]; simulated gastric fluid, SGF (pH 1.6)", "value": "> 11000", "unit": "µg/mL"}, {"measurement": "solubility", "setting": "[6]; FeSSIF (pH 5.0)", "value": 419, "unit": "µg/mL"}, {"measurement": "solubility", "setting": "[6]; Water", "value": 111, "unit": "µg/mL"}, {"measurement": "solubility", "setting": "[6]; HCl solution, simulated gastric fluid, pH 2.0 (HCl)", "value": 3470, "unit": "µg/mL"}, {"measurement": "solubility", "setting": "[6]; KHP buffer, aqueous buffer, pH 3.0 (KHP)", "value": 1570, "unit": "µg/mL"}, {"measurement": "solubility", "setting": "[6]; KHP buffer, aqueous buffer, pH 5.5 (KHP)", "value": 107, "unit": "µg/mL"}, {"measurement": "solubility", "setting": "[6]; KPH buffer (so in the source), aqueous buffer, pH 4.0 (KPH)", "value": 362, "unit": "µg/mL"}, {"measurement": "solubility", "setting": "[6]; acetate buffer, aqueous buffer, pH 5.5 (Acetate)", "value": 93.5, "unit": "µg/mL"}, {"measurement": "solubility", "setting": "[6]; aqueous KHP solution, aqueous buffer, pH 5.0 (KHP)", "value": 147, "unit": "µg/mL"}, {"measurement": "solubility", "setting": "[6]; aqueous acetate solution, aqueous buffer, pH 4.0 (Acetate)", "value": 186, "unit": "µg/mL"}, {"measurement": "solubility", "setting": "[6]; aqueous acetate solution, aqueous buffer, pH 5.0 (Acetate)", "value": 296, "unit": "µg/mL"}, {"measurement": "solubility", "setting": "[6]; borate buffer, aqueous buffer, pH 8.5 (Borate)", "value": 112, "unit": "µg/mL"}, {"measurement": "Sorp Mass Change", "setting": "[7]; Target RH 5.0%, sample RH 4.8%", "value": 0.0013, "unit": "%"}, {"measurement": "Desorp Mass Change", "setting": "[7]; Target RH 5.0%, sample RH 5.6%", "value": 0.0334, "unit": "%"}, {"measurement": "Hysteresis", "setting": "[7]; Target RH 15.0%", "value": 0.0528}, {"measurement": "Sorp Mass Change", "setting": "[7]; Target RH 15.0%, sample RH 15.1%", "value": 0.0412, "unit": "%"}, {"measurement": "Desorp Mass Change", "setting": "[7]; Target RH 15.0%, sample RH 17.1%", "value": 0.0940, "unit": "%"}, {"measurement": "Hysteresis", "setting": "[7]; Target RH 25.0%", "value": 0.0461}, {"measurement": "Sorp Mass Change", "setting": "[7]; Target RH 25.0%, sample RH 25.0%", "value": 0.0707, "unit": "%"}, {"measurement": "Desorp Mass Change", "setting": "[7]; Target RH 25.0%, sample RH 25.8%", "value": 0.1168, "unit": "%"}, {"measurement": "Hysteresis", "setting": "[7]; Target RH 35.0%", "value": 0.0399}, {"measurement": "Sorp Mass Change", "setting": "[7]; Target RH 35.0%, sample RH 35.0%", "value": 0.0904, "unit": "%"}, {"measurement": "Desorp Mass Change", "setting": "[7]; Target RH 35.0%, sample RH 35.9%", "value": 0.1302, "unit": "%"}, {"measurement": "Hysteresis", "setting": "[7]; Target RH 45.0%", "value": 0.0378}, {"measurement": "Sorp Mass Change", "setting": "[7]; Target RH 45.0%, sample RH 45.1%", "value": 0.1069, "unit": "%"}, {"measurement": "Desorp Mass Change", "setting": "[7]; Target RH 45.0%, sample RH 46.0%", "value": 0.1447, "unit": "%"}, {"measurement": "Hysteresis", "setting": "[7]; Target RH 55.0%", "value": 0.0357}, {"measurement": "Sorp Mass Change", "setting": "[7]; Target RH 55.0%, sample RH 55.1%", "value": 0.1214, "unit": "%"}, {"measurement": "Desorp Mass Change", "setting": "[7]; Target RH 55.0%, sample RH 56.0%", "value": 0.1572, "unit": "%"}, {"measurement": "Hysteresis", "setting": "[7]; Target RH 65.0%", "value": 0.0347}, {"measurement": "Sorp Mass Change", "setting": "[7]; Target RH 65.0%, sample RH 65.1%", "value": 0.1359, "unit": "%"}, {"measurement": "Desorp Mass Change", "setting": "[7]; Target RH 65.0%, sample RH 66.0%", "value": 0.1706, "unit": "%"}, {"measurement": "Hysteresis", "setting": "[7]; Target RH 75.0%", "value": 0.0311}, {"measurement": "Sorp Mass Change", "setting": "[7]; Target RH 75.0%, sample RH 74.9%", "value": 0.1561, "unit": "%"}, {"measurement": "Desorp Mass Change", "setting": "[7]; Target RH 75.0%, sample RH 76.6%", "value": 0.1872, "unit": "%"}, {"measurement": "Hysteresis", "setting": "[7]; Target RH 85.0%", "value": 0.0233}, {"measurement": "Sorp Mass Change", "setting": "[7]; Target RH 85.0%, sample RH 84.8%", "value": 0.1882, "unit": "%"}, {"measurement": "Desorp Mass Change", "setting": "[7]; Target RH 85.0%, sample RH 87.6%", "value": 0.2115, "unit": "%"}, {"measurement": "Desorp Mass Change", "setting": "[7]; [8]", "value": 0.2343, "unit": "%"}, {"measurement": "Sorp Mass Change", "setting": "[7]; [8]", "value": 0.2343, "unit": "%"}, {"measurement": "Weight lost upon desorption", "setting": "[7]; desorption 95 to 5% RH", "value": 0.20, "unit": "%"}, {"measurement": "Weight gained", "setting": "[7]; from 5 to 95% relative humidity", "value": 0.23, "unit": "%"}]}
